Assay [1] concerns M2-10B4 marrow stromal cells. In words: Matrix mineralization (45Ca incorporation assay, von Kossa staining). The format is cell-based, mouse. The note with it: M2 cells in osteogenic medium, 10-14 days. How it is done:
(§1) Von Kossa and oil red O staining—Matrix mineralization in cell monolayers was detected by silver nitrate staining as previously described. Oil red O staining for detection of adipocytes was performed as previously described.
^45Ca incorporation assay—Matrix mineralization in cell monolayers was quantified using the ^45Ca incorporation assay as previously described.
After 14 days, mineralization was identified by a von Kossa staining, which appears black. FIG. 3C is a depiction of von Kossa staining of M2 cells exposed to various conditions. […]

Assay [2] relates to osteocalcin mRNA. Put plainly: Northern blotting for osteocalcin mRNA in M2 cells. The settings on record: M2 cells in osteogenic medium, up to 14 days. The format is cell-based, mouse. How it is done:
RNA isolation and Northern blot analysis—Following treatment of cells under appropriate experimental conditions, total RNA was isolated using the RNA isolation kit from Stratagene (La Jolla, Calif., U.S.A.). Total RNA ([…]) was run on a 1% agarose/formaldehyde gel and transferred to Duralon-UV membranes (Strategene, Calif., U.S.A.) and cross-linked with UV light. The membranes were hybridized overnight at 60 degree C. with ^32P-labeled mouse osteocalcin cDNA probe, mouse lipoprotein lipase (LPL), mouse adipocyte protein 2 (aP2) PCR-generated probes, human 28S or 18S rRNA probes obtained from Geneka Biotechnology (Montreal, Quebec, Canada) and Maxim Biotech (San Francisco, Calif., U.S.A.), respectively. The PCR products were generated using primer sets synthesized by Invitrogen (Carlsbad, Calif., U.S.A.) with the following specifications: mouse aP2 gene (accession no. M13261); sense (75-95) 5′-[…]-3′, antisense (362-383) 5′-[…]-3′, generating a PCR product of 309 base pairs. Mouse LPL (accession no. XM—134193); sense (1038-1058) 5′-[…]-3′, antisense (1816-1836) 5′-[…]-3′, generating a PCR product of 799 base pairs. […] Following hybridization, the blots were washed twice at room temperature with 2×SSC+0.1% SDS, and then twice at 60 degree C. with 0.5×SSC+0.1% SDS, and exposed to X-ray film. The extent of gene induction was determined by densitometry.
After 4 and 8 days, total RNA from duplicate samples was isolated and analyzed for osteocalcin (Osc) and 28S rRNA expression by Northern blotting as described. FIG. 3E is a radiogram of Northern blotting for osteocalcin mRNA in M2 cells exposed to a control or combination of oxysterols for 4 or 8 days. FIG. 3F is a bar graph depicting the relative demsometric units of osteocalcin mRNA in M2 cells exposed to a control or combination of oxysterols for 4 or 8 days. Data from densitometric analysis of the Northern blot is shown in (F) as the average of duplicate samples, normalized to 28S rRNA.
RNA Isolation and Northern Blot Analysis—Total RNA was isolated using the RNA isolation kit from Stratagene (La Jolla, Calif., USA). Northern blotting and analysis of osteocalcin mRNA and 18S rRNA expression was performed as previously described (23).

Assay [3] concerns M2 cells. Put plainly: Troglitazone-induced adipogenesis, oil Red O staining and adipocyte count. The format is cell-based, mouse. The settings on record: troglitazone 10 μM, oxysterols 10 μM, 8-10 days. How it is done:
as §1
Test 1: M2 cells at 90% confluence were treated with vehicle (C), PPAR-γ activator, troglitazone 10 uM (Tro), alone or in combination with 10 μM oxysterols 20S-, 22R-, or 25S-hydroxycholesterol. After 8 days, adipocytes were identified by oil Red 0 staining and quantified by counting under a phase contrast microscope. FIG. 6A is a bar graph depicting the effect of oxysterols on reducing adipogenesis of MSC.
Test 2: (A) M2 cells at confluence were treated in RPMI containing 10% FBS with control vehicle or 10 μM troglitazone (Tro) in the absence or presence of 10 μM 20S or 22S oxysterols. After 10 days, adipocytes were visualized by oil Red O staining and quantified by light microscopy, shown in (B). […] (C) M2 cells were treated at confluence with 10 μM Tro, alone or in combination with 10 μM 20S oxysterol. After 10 days, total RNA was isolated and analyzed for lipoprotein lipase (LPL), adipocyte P2 gene (aP2) or 18S rRNA expression by Northern blotting as described (Ref). Data from densitometric analysis of the Northern blot is shown in (D) as the average of duplicate samples, normalized to 18S rRNA.

Assay [4] has as its system lipoprotein lipase (LPL) and adipocyte P2 gene (aP2). Put plainly: Northern blotting for adipogenic genes in M2 cells. The note with it: 10 μM Tro with 10 μM 20S, 10 days. The format is cell-based, mouse. How it is done:
RNA isolation and Northern blot analysis—Following treatment of cells under appropriate experimental conditions, total RNA was isolated using the RNA isolation kit from Stratagene (La Jolla, Calif., U.S.A.). Total RNA ([…]) was run on a 1% agarose/formaldehyde gel and transferred to Duralon-UV membranes (Strategene, Calif., U.S.A.) and cross-linked with UV light. The membranes were hybridized overnight at 60 degree C. with ^32P-labeled mouse osteocalcin cDNA probe, mouse lipoprotein lipase (LPL), mouse adipocyte protein 2 (aP2) PCR-generated probes, human 28S or 18S rRNA probes obtained from Geneka Biotechnology (Montreal, Quebec, Canada) and Maxim Biotech (San Francisco, Calif., U.S.A.), respectively. […] The extent of gene induction was determined by densitometry.
Test 2: (A) M2 cells at confluence were treated in RPMI containing 10% FBS with control vehicle or 10 μM troglitazone (Tro) in the absence or presence of 10 μM 20S or 22S oxysterols. After 10 days, adipocytes were visualized by oil Red O staining and quantified by light microscopy, shown in (B). […] After 10 days, total RNA was isolated and analyzed for lipoprotein lipase (LPL), adipocyte P2 gene (aP2) or 18S rRNA expression by Northern blotting as described (Ref). […]

In assay [5] the test system is ERK1 and ERK2. In words: Western blot for native and phosphorylated ERK in M2 cells. The format is cell-based, mouse. The note with it: 5 μM, 1, 4 or 8 hours. How it is done:
Western blot analysis—After treatments, cells were lysed in lysis buffer, protein concentrations determined using the Bio-Rad protein assay (Hercules, Calif. U.S.A.), and SDS-PAGE performed as previously described. Probing for native and phosphorylated ERKs was performed as previously reported.
(A) M2 cells at confluence were pretreated for four hours with RPMI containing 1% FBS, followed by treatment with control vehicle or 5 μM 20S oxysterol for 1, 4, or 8 hours. Next total cell extracts were prepared and analyzed for levels of native or phosphorylated ERK (pERK) using specific antibodies as previously described. Data from a representative of four experiments are shown, each treatment shown in duplicate samples. (B) M2 cells at confluence were pretreated for 2 hours with control vehicle (C) or 20 μM PD98059 (PD) in osteogenic medium as previously described. Next, a combination of 22R and 20S oxysterols (RS, 5 μM each) were added to appropriate wells as indicated. After 10 days of incubation, matrix mineralization was quantified by the ^45Ca incorporation assay as previously described. […] (C) M2 cells at confluence were pretreated for 2 hours with 20 µM PD98059 (PD) in RPMI containing 5% FBS. […] After 10 days, adipocytes were visualized by oil Red O staining and quantified by light microscopy as previously described. […]
Background: In western blotting, separated proteins are transferred to a membrane and probed.

The subject of assay [6] is M2-10B4 marrow stromal cells. Put plainly: Colorimetric alkaline phosphatase (ALP) activity assay on whole cell extracts.
Protocol: Alkaline phosphatase activity assay: Colorimetric alkaline phosphatase (ALP) activity assay on whole cell extracts was performed as previously described.
Test 1: M2 cells at confluence were treated with control vehicle (C), or 10 µM oxysterols, in an osteogenic medium consisting of RPMI 1640 to which 10% fetal bovine serum (FBS), 50 µg/ml ascorbate and 3 mM beta-glycerophosphate (□GP) were added. After 3 days of incubation, alkaline phosphatase (ALP) activity was determined in cell homogenates by a colorimetric assay.
M2 cells at confluence were treated in osteogenic medium with control vehicle (C) or a combination of 22R and 20S oxysterols, at the indicated concentrations. ALP activity was measured after 3 days as described above.
Test 2: M2 cells were grown in RPMI medium containing 10% fetal bovine serum (FBS). At confluence, the cells were treated in RPMI containing 5% FBS plus ascorbate at 50 μg/ml and β-glycerophosphate at 3 mM to induce osteoblastic differentiation. Adipogenic differentiation was induced by treating the cells in growth medium plus 10˜M troglitazone. A vehicle (C) or oxysterol treatment was applied to cells in a variety of doses (in μM): 20S-Hydroxycholesterol, 25-Hydroxycholesterol, 22R-Hydroxycholesterol; 22S-Hydroxycholesterol; 7-ketocholesterol. Cells were always treated at 90% confluence. After 4 days, alkaline phosphatase activity was determined in whole cell lysates and normalized to protein. Alternatively, MSC cultures were prepared and treated with oxysterols as described above. Cells were treated at 90% confluence with the combination of 22R-Hydroxycholesterol and 20S-Hydroxycholesterol, each at 5 μM, for 4 to 96 hours. The oxysterols where removed and fresh media without oxysterols was added for a total duration of 96 hours. Alkaline phosphatase activity was measured in whole cell extracts and normalized to protein.
Cells were treated with the oxysterols (5 μM) for 4 days after which they were collected and analyzed by colorimetric assay for alkaline phosphatase activity. Results from a representative experiment are shown as the average of quadruplicate determination ±SD.

Take `CC(C)CCC[C@](C)(O)[C@H]1CC[C@H]2[C@@H]3CC=C4C[C@@H](O)CC[C@]4(C)[C@H]3CC[C@@]21C` [20S-hydroxycholesterol]: in assay [1], the mineralization entry is listed as “unable to induce”. For the same molecule, in assay [2], the osteocalcin gene expression entry is reported as “unable to induce”. Besides, the inhibition of adipogenesis result in assay [3] was “inhibited adipogenesis”. In addition, the “expression of the adipogenic genes LPL and aP2” value in assay [4] was “inhibition of the expression”. Also, the “activation of ERK1 and ERK2” value in assay [5] was “sustained activation”. Further, the “alkaline phosphatase activity (induction)” value in assay [6] (M2 cells in osteogenic medium, oxysterols 0.5-10 μM, 3-4 days) is on record as “induced alkaline phosphatase activity”. For the same molecule, in assay [6] (M2 cells, ligands used at 10 μM, control 18±2, ±SD), the alkaline phosphatase activity is listed as 140±12 activity units/mg protein.

(Values after patent US20090202660A1, “Agents and Methods for Osteogenic Oxysterols Inhibition of Oxidative Stress on Osteogenic Cellular Differentiation” (The Regents of the University of California, priority 2005, published 2009).)
